Experimental data published in patent US8362031B2, “Lonidamine analogues and treatment of polycystic kidney disease” (University of Kansas, priority 2004, dated 2013).

Test system: male rats
Assay: Fertility trials following oral administration (challenge mating)
Assay type: in vivo, rat
Details: for Males fertile / Embryos abnormal (mean number per pregnant female) / Embryos normal (mean number per pregnant female): Table 9B, single oral dose of 6 mg/kg; for MALES MATED/MALES FERTILE: Table 9C
Method: The following table illustrates the results of a single oral does of 6 mg/kg of RC-MC-110 orally to male rats. […] The ethyl alcohol was evaporated 10% prior to administration. The “embryos normal” and “embryos abnormal” represents the mean number of embryos per pregnant female. […]
The following table illustrates the results of a single oral does of four different doses of RC-MC-110 orally to male rats.

In the case of O=C(O)/C=C/c1nn(Cc2ccc(Cl)cc2Cl)c2cc(C(F)(F)F)ccc12 [RC-MC-110, trans 3-[1-(2,4-dichlorobenzyl)-6-trifluoromethyl-1H-indazol-3-yl]-acrylic acid], the Males fertile (week 7, 7 males mated) is reported as 2, the “Embryos abnormal (mean number per pregnant female)” value (week 8) is reported as 1 and the “Embryos normal (mean number per pregnant female)” value (week 8) is reported as 12. The Males fertile (week 8, 7 males mated) was 3, the “Embryos abnormal (mean number per pregnant female)” value (week 9) was 0.4 and the “Embryos normal (mean number per pregnant female)” value (week 9) was 12. For the same compound, the Males fertile (week 9, 7 males mated) was 4, the “Embryos abnormal (mean number per pregnant female)” value (week 10) was 1 and the “Embryos normal (mean number per pregnant female)” value (week 10) was 11. For the same compound, the Males fertile (week 10, 7 males mated) was 3, the “Embryos abnormal (mean number per pregnant female)” value (week 12) was 0.1 and the “Embryos normal (mean number per pregnant female)” value (week 12) was 14. The Males fertile (week 12, 7 males mated) was 4, the “Embryos abnormal (mean number per pregnant female)” value (week 13) was 1.0 and the “Embryos normal (mean number per pregnant female)” value (week 13) was 14. For the same compound, the Males fertile (week 13, 7 males mated) was 3, the “Embryos abnormal (mean number per pregnant female)” value (week 14) was 0.7 and the “Embryos normal (mean number per pregnant female)” value (week 14) was 11. For the same compound, the Males fertile (week 14, 7 males mated) was 4, the “Embryos abnormal (mean number per pregnant female)” value (week 18) was 0.7 and the “Embryos normal (mean number per pregnant female)” value (week 18) was 14. For the same compound, the Males fertile (week 18, 7 males mated) was 4, the “Embryos abnormal (mean number per pregnant female)” value (week 26) was 0.6 and the “Embryos normal (mean number per pregnant female)” value (week 26) was 13. The Males fertile (week 26, 7 males mated) was 3, the “MALES MATED/MALES FERTILE” value (single oral dose 0.75 MG/KG in 10% ethyl alcohol and sesame oil, week 1) was 6/6 and the “MALES MATED/MALES FERTILE” value (single oral dose 0.75 MG/KG in 10% ethyl alcohol and sesame oil, week 2) was 8/8. The “MALES MATED/MALES FERTILE” value (single oral dose 0.75 MG/KG in 10% ethyl alcohol and sesame oil, week 3) was 6/6, the “MALES MATED/MALES FERTILE” value (single oral dose 0.75 MG/KG in 10% ethyl alcohol and sesame oil, week 4) was 6/6 and the “MALES MATED/MALES FERTILE” value (single oral dose 0.75 MG/KG in 10% ethyl alcohol and sesame oil, week 5) was 6/6. For the same compound, the “MALES MATED/MALES FERTILE” value (single oral dose 0.75 MG/KG in 10% ethyl alcohol and sesame oil, week 6) was 6/6, the “MALES MATED/MALES FERTILE” value (single oral dose 0.75 MG/KG in 10% ethyl alcohol and sesame oil, week 7) was 6/6 and the “MALES MATED/MALES FERTILE” value (single oral dose 0.75 MG/KG in 10% ethyl alcohol and sesame oil, week 8) was 6/6. The “MALES MATED/MALES FERTILE” value (single oral dose 1.5 MG/KG in 10% ethyl alcohol and sesame oil, week 1) was 6/5, the “MALES MATED/MALES FERTILE” value (single oral dose 1.5 MG/KG in 10% ethyl alcohol and sesame oil, week 2) was 6/6 and the “MALES MATED/MALES FERTILE” value (single oral dose 1.5 MG/KG in 10% ethyl alcohol and sesame oil, week 3) was 6/5. For the same compound, the “MALES MATED/MALES FERTILE” value (single oral dose 1.5 MG/KG in 10% ethyl alcohol and sesame oil, week 4) was 6/5, the “MALES MATED/MALES FERTILE” value (single oral dose 1.5 MG/KG in 10% ethyl alcohol and sesame oil, week 5) was 6/6 and the “MALES MATED/MALES FERTILE” value (single oral dose 1.5 MG/KG in 10% ethyl alcohol and sesame oil, week 6) was 6/6. The “MALES MATED/MALES FERTILE” value (single oral dose 1.5 MG/KG in 10% ethyl alcohol and sesame oil, week 7) was 6/6, the “MALES MATED/MALES FERTILE” value (single oral dose 1.5 MG/KG in 10% ethyl alcohol and sesame oil, week 8) was 6/6 and the “MALES MATED/MALES FERTILE” value (single oral dose 1.5 MG/KG in 10% ethyl alcohol and sesame oil, week 9) was 6/6. The “MALES MATED/MALES FERTILE” value (single oral dose 3.0 MG/KG in 10% ethyl alcohol and sesame oil, week 1) was 6/6, the “MALES MATED/MALES FERTILE” value (single oral dose 3.0 MG/KG in 10% ethyl alcohol and sesame oil, week 2) was 6/6 and the “MALES MATED/MALES FERTILE” value (single oral dose 3.0 MG/KG in 10% ethyl alcohol and sesame oil, week 3) was 6/3. The “MALES MATED/MALES FERTILE” value (single oral dose 3.0 MG/KG in 10% ethyl alcohol and sesame oil, week 4) was 6/2, the “MALES MATED/MALES FERTILE” value (single oral dose 3.0 MG/KG in 10% ethyl alcohol and sesame oil, week 5) was 6/6 and the “MALES MATED/MALES FERTILE” value (single oral dose 3.0 MG/KG in 10% ethyl alcohol and sesame oil, week 6) was 6/6. The “MALES MATED/MALES FERTILE” value (single oral dose 3.0 MG/KG in 10% ethyl alcohol and sesame oil, week 7) was 6/6, the “MALES MATED/MALES FERTILE” value (single oral dose 3.0 MG/KG in 10% ethyl alcohol and sesame oil, week 8) was 6/6 and the “MALES MATED/MALES FERTILE” value (single oral dose 3.0 MG/KG in 10% ethyl alcohol and sesame oil, week 9) was 6/6. For the same compound, the “MALES MATED/MALES FERTILE” value (single oral dose 6.0 MG/KG in 10% ethyl alcohol and sesame oil, week 1) was 7/7, the “MALES MATED/MALES FERTILE” value (single oral dose 6.0 MG/KG in 10% ethyl alcohol and sesame oil, week 2) was 7/7 and the “MALES MATED/MALES FERTILE” value (single oral dose 6.0 MG/KG in 10% ethyl alcohol and sesame oil, week 3) was 7/2. For the same compound, the “MALES MATED/MALES FERTILE” value (single oral dose 6.0 MG/KG in 10% ethyl alcohol and sesame oil, week 4) was 7/0, the “MALES MATED/MALES FERTILE” value (single oral dose 6.0 MG/KG in 10% ethyl alcohol and sesame oil, week 5) was 7/0 and the “MALES MATED/MALES FERTILE” value (single oral dose 6.0 MG/KG in 10% ethyl alcohol and sesame oil, week 6) was 7/1. For the same compound, the “MALES MATED/MALES FERTILE” value (single oral dose 6.0 MG/KG in 10% ethyl alcohol and sesame oil, week 7) was 7/2, the “MALES MATED/MALES FERTILE” value (single oral dose 6.0 MG/KG in 10% ethyl alcohol and sesame oil, week 8) was 7/3 and the “MALES MATED/MALES FERTILE” value (single oral dose 6.0 MG/KG in 10% ethyl alcohol and sesame oil, week 9) was 7/4. For the same compound, the “MALES MATED/MALES FERTILE” value (single oral dose 6.0 MG/KG in 10% ethyl alcohol and sesame oil, week 10) was 7/3, the “MALES MATED/MALES FERTILE” value (single oral dose 6.0 MG/KG in 10% ethyl alcohol and sesame oil, week 12) was 7/4 and the “MALES MATED/MALES FERTILE” value (single oral dose 6.0 MG/KG in 10% ethyl alcohol and sesame oil, week 13) was 7/3. The “MALES MATED/MALES FERTILE” value (single oral dose 6.0 MG/KG in 10% ethyl alcohol and sesame oil, week 14) was 7/4.
